This is an account of results in US20220249616A1, “Osteocrin, Lebetin or ANP for Destroying Bacterial Biofilms” (priority 2019, published 2022).

Read-outs that look alike come from different tables or passages of the source.

For experiment [1], the system named is preformed biofilm of P. aeruginosa PA14. Kind of experiment: microbe, parasite or virus in culture. To be noted: for dispersion of established biofilm (observation): 10^−8 M; for dispersion of established biofilm (observation) / % Inhibition (2 h) / Biovolume (2 h): 2 h exposure. The method, then: Briefly, from an 18 h pre-culture, a bacterial suspension at OD600=0.08 prepared in sterile physiological saline solution was injected into each channel of the flow chamber. The bacteria were left for 2 h at 37° C. under static conditions (no flow) so that they adhered to the glass slide. Study of biofilm formation was then conducted under a flow of LB medium (2.5 ml/h) for 24 h at 37° C.
[…] Treatment of the preformed biofilm was conducted for 2 h at 37° C. under static conditions.
(§1) Treatment of the preformed biofilm was conducted for 2 h at 37° C. under static conditions.
To test the membrane integrity of the bacteria, a mixture of 5 μM SYTO 9 Green and 0.3 μM propidium iodide (PI) was used (Live/Dead BacLight Bacterial Viability Kit, Invitrogen).
as §1, §1, §1, §1
Treatment of the biofilm was conducted for 2 h at 37° C. under static conditions. […] Next, 300 μl of tobramycin (50 μg/ml) or 300 μl of milliQ sterile water (control conditions) were injected into the two channels of the flow chamber pre-exposed to ANP. The second treatment of the preformed biofilm was again conducted for 2 h at 37° C. under static conditions.

For the next experiment, the system named is P. aeruginosa biofilm. To be noted: Desriac et al. 2017, 2018; Rosay et al. 2015; cited from earlier work.
In experiment [2] the target is AmiC sensor of P. aeruginosa (Pseudomonas aeruginosa, UniProt P27017). To be noted: Rosay et al. (2015); cited from earlier work.
[3] abbreviates: Pseudomonas aeruginosa, PA14, 2 h.

Chain of AmiC sensor of P. aeruginosa (P27017 whole entry): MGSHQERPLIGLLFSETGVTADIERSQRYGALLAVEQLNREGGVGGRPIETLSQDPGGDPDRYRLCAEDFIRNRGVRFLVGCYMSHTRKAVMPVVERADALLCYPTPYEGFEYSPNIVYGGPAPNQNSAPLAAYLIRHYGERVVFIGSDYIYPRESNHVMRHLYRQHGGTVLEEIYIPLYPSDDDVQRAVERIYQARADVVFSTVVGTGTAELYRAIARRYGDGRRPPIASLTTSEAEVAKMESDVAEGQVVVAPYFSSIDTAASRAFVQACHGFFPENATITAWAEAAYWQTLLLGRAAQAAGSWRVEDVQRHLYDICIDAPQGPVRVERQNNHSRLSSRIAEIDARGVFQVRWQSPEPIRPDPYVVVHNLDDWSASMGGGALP

In experiment [1] (setting [3]), `O=C(O)c1cn(C2CC2)c2cc(N3CCNCC3)c(F)cc2c1=O` [Ciprofloxacin, ciprofloxacin, reference compound] showed an inhibition at 0.01 µg/mL of 90% and an inhibition at 0.04 µg/mL of 99.3%.
In experiment [1], `C[C@@H](O)[C@H]1C(=O)N2C(C(=O)O)=C(SCCN=CN)C[C@H]12` [Imipenem, imipenem, reference compound] displayed a Biovolume of 7.0 μm^3/μm^2. In addition, testing at 0.5 µg/mL in experiment [1] (setting [3]) gave an inhibition of 75%.
Regarding `NC[C@H]1O[C@H](O[C@H]2[C@H](O)[C@@H](O[C@H]3O[C@H](CO)[C@@H](O)[C@H](N)[C@H]3O)[C@H](N)C[C@@H]2N)[C@H](N)C[C@@H]1O` [Tobramycin, tobramycin, reference compound], in experiment [1] (setting [3]), the inhibition at 10 µg/mL turned out to be 78.5% and 50 µg/mL produced 75.9% inhibition. The compound further returned a Biovolume in experiment [1] (Tobramycin 10 μg/ml alone, 2 h, non-treated 13.5) of 2.9 μm^3/μm^2. Further, in experiment [1] (Tobramycin 50 μg/ml alone, 2 h, non-treated 13.5), the Biovolume was found to be 3.26 μm^3/μm^2.
As for Brain Natriuretic Peptide [BNP], the “formation of P. aeruginosa biofilm” value with P. aeruginosa biofilm was “prevent the formation”.
Regarding colistin [reference compound], the “% Inhibition” value in experiment [1] (Colistin 1 μg/ml alone, 2 h) was 88.6%. The compound also yielded a Biovolume in experiment [1] (Colistin 1 μg/ml alone, 2 h, non-treated 18.5) of 2.1 μm^3/μm^2.
Consider lebetin 1β [Lebetin L1 beta], for which, in experiment [1], the “dispersion of established biofilm (observation)” value (from here on “dispersion”) is “strongly dispersed”. Besides, the “% Inhibition (2 h)” value in experiment [1] (Lebetin L1 beta 10^−8 M) worked out at 67.0%. Also, the “Biovolume (2 h)” value in experiment [1] (Lebetin L1 beta 10^−8 M, non-treated 21.0) was determined as 6.9 μm^3/μm^2.
Consider “lebetin 2α (GDNKPPKKGPPNGCFGHKIDRIGSHSGLGCNKVDDNKG) [Lebetin L2 alpha]”, for which, in experiment [1], the “dispersion” value is “strongly and significantly dispersed”. The “% Inhibition (2 h)” value in experiment [1] (Lebetin L2 alpha 10^−8 M) is given as 70.2 (***) %. Besides, the “Biovolume (2 h)” value in experiment [1] (Lebetin L2 alpha 10^−8 M, non-treated 29.7) is reported as 8.9 μm^3/μm^2. In addition, the “binding onto the AmiC sensor of P. aeruginosa” value in experiment [2] is “strong affinity”.
As for osteocrin, in experiment [1], the “dispersion” value is “strongly and significantly dispersed”. Also, in experiment [1] (Osteocrin 10^−8 M), the “% Inhibition (2 h)” value is given as 59.4 (***) %. In addition, the “Biovolume (2 h)” value in experiment [1] (Osteocrin 10^−8 M, non-treated 29.8) is 12.1 μm^3/μm^2. Besides, the “binding onto the AmiC sensor of P. aeruginosa” value in experiment [2] is given as “strong affinity”.
Consider polymyxin B [reference compound], for which the “% Inhibition” value in experiment [1] (Polymyxin B 4 μg/ml alone, 2 h) is 59.3%. In experiment [1] (Polymyxin B 4 μg/ml alone, 2 h, non-treated 18.2), this compound registered a Biovolume of 7.4 μm^3/μm^2.
